According to ChEMBL document CHEMBL1201862, “PubChem BioAssay data set” (2004):
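Growth conditions: 96-well plates. Treatment: test compound, 48 hours, 5 concentrations. Analysis: linear interpolation between bracketing concentrations; unreached endpoints set to highest concentration. Here, GI50 denotes the concentration required for 50% inhibition of growth.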 Active and inactive are the calls of the source. Cut-off read from the data, not from the text of the source: active = GI50 up to about 1.1 µM and inactive = higher.

How the values were obtained:
Test in all cases: inhibition of tumour cell growth, NCI panel, 48 h
A498 = test system: A498
ACHN = test system: ACHN
CCRF-CEM = test system: CCRF-CEM
DLD-1 = test system: DLD-1
HCT-116 = test system: HCT-116
HOP-62 = test system: HOP-62
K562 = test system: K562
LXFL 529 = test system: LXFL 529
Malme-3M = test system: Malme-3M
NCI-H23 = test system: NCI-H23
OVCAR-5 = test system: OVCAR-5
SF-268 = test system: SF-268
SNB-19 = test system: SNB-19
SNB-75 = test system: SNB-75
HOP-92 = test system: HOP-92
UACC-62 = test system: UACC-62

Measured: GI50

COc1cc2cc(OC(C)=O)c3cc4c(cc3c2c(OC)c1OC)OCO4
inactive: A498 > 100 µM | ACHN > 100 µM | CCRF-CEM > 100 µM | DLD-1 > 100 µM | HCT-116 > 100 µM | HOP-62 > 100 µM | K562 > 100 µM | LXFL 529 > 100 µM | Malme-3M > 100 µM | NCI-H23 > 100 µM | OVCAR-5 > 100 µM | SF-268 > 100 µM | SNB-19 > 100 µM | SNB-75 > 100 µM

CCOc1ccccc1N1C(=O)C(=O)C(c2nc3ccccc3o2)/C(=N\N)C1=O (stereo not drawn)
inactive: A498 > 100 µM | ACHN 88.1 µM | CCRF-CEM > 100 µM | DLD-1 > 100 µM | HCT-116 79.8 µM | HOP-62 > 100 µM | HOP-92 > 100 µM | K562 > 100 µM | LXFL 529 > 100 µM | Malme-3M > 100 µM | NCI-H23 > 100 µM | OVCAR-5 > 100 µM | SF-268 55 µM | SNB-19 > 100 µM | SNB-75 27.7 µM | UACC-62 > 100 µM

CC1(C=O)C(=O)CCC2(C)C3CC(=O)OC3CCC12 (stereo not drawn)
inactive: ACHN > 100 µM | CCRF-CEM > 100 µM | DLD-1 > 100 µM | HOP-62 > 100 µM | HOP-92 > 100 µM | K562 > 100 µM | LXFL 529 > 100 µM | Malme-3M > 100 µM | NCI-H23 > 100 µM | OVCAR-5 > 100 µM | SF-268 > 100 µM | SNB-19 > 100 µM | SNB-75 > 100 µM | UACC-62 > 100 µM

CN(/N=C/c1cccc2cccnc12)c1c([N+](=O)[O-])cc([N+](=O)[O-])cc1[N+](=O)[O-]
inactive: A498 25.5 µM | ACHN > 100 µM | DLD-1 > 100 µM | HCT-116 > 100 µM | HOP-62 > 100 µM | HOP-92 > 100 µM | K562 3.56 µM | LXFL 529 > 100 µM | Malme-3M > 100 µM | NCI-H23 > 100 µM | OVCAR-5 > 100 µM | SF-268 > 100 µM | SNB-19 > 100 µM | SNB-75 > 100 µM | UACC-62 > 100 µM

O=C1c2cccc3c(Cl)ccc(c23)C(=O)N1CCCN1CCN(CCCN2C(=O)c3cccc4c(Cl)ccc(c34)C2=O)CC1
inactive: A498 > 100 µM | ACHN 81.8 µM | CCRF-CEM > 100 µM | DLD-1 50.5 µM | HCT-116 66.7 µM | HOP-62 > 100 µM | HOP-92 > 100 µM | K562 86.1 µM | LXFL 529 > 100 µM | Malme-3M > 100 µM | NCI-H23 97.1 µM | OVCAR-5 > 100 µM | SNB-19 > 100 µM | SNB-75 40.2 µM | UACC-62 > 100 µM

O=C1/C(=C/c2ccc(Br)cc2)CCC/C1=C\c1ccc(Br)cc1
inactive: A498 5.32 µM | ACHN 12.2 µM | CCRF-CEM 5.11 µM | DLD-1 5.04 µM | HCT-116 1.73 µM | HOP-62 20 µM | K562 4.31 µM | LXFL 529 3.82 µM | Malme-3M 19.6 µM | NCI-H23 5.69 µM | SF-268 17.2 µM | SNB-19 18.9 µM | SNB-75 20.6 µM | UACC-62 15.1 µM

COc1c(C)c(O)c2c(=O)cc(-c3ccccc3)oc2c1C
inactive: A498 > 100 µM | ACHN > 100 µM | CCRF-CEM > 100 µM | DLD-1 > 100 µM | HCT-116 > 100 µM | HOP-62 > 100 µM | HOP-92 > 100 µM | K562 > 100 µM | LXFL 529 > 100 µM | Malme-3M > 100 µM | NCI-H23 > 100 µM | OVCAR-5 > 100 µM | SF-268 > 100 µM | SNB-75 > 100 µM | UACC-62 > 100 µM
